According to patent US9683014B2, “Dipeptide mimetics of NGF and BDNF neurotrophins” (UCHREZHDENIE ROSSIISKOI AKADEMII MEDITSYNSKIKH NAUK …, priority 2009, dated 2017):
Numbered stars: 1 amine (or outer) side, 2 acyl side, 3 side chain; on linkers, the order of the positions; unused ones are H or OH. Bridge positions count the residues as written; N and C are the ends. Peptide text beside a SMILES is read from it. I, II: the chains in the order shown. Ethylenediamine = C(CN[*:2])N[*:1]; Suc = O=C(CCC(=O)[*:2])[*:1]

Assays:
PC12 cell line = assay: Cellular model of Parkinson's disease (MPTP, MTT test); type: cell-based, rat; conditions: added 24 hours prior to MPTP 1 mM
Method: To produce a model for Parkinson's disease, MPTP was used at a final concentration of 1 mM (Shimoke K., Chiba H. Nerve growth factor prevents 1-methyl-[…]-1,2,3,6-tetrahydropyridine-induced cell death via the Akt pathway by suppressing caspase-3-like activity using PC12 cells: relevance to therapeutic application for Parkinson's disease. J. Neurosci. Res. 2001, 63, 402-409). MPTP was added to the cell growth medium containing 1% FBS at 24 hours after passage. The peptides were added to the cell growth medium concurrently with MPTP or 24 h before MPTP. Cell viability was determined at 24 h using an MTT test.

HT-22 cells = assay: Oxidative stress (H2O2) model in cultured HT-22 cells (MTT test); type: cell-based, mouse; conditions: for Optical density (MTT): Table 1.5, 24 h before H2O2, control 0.1275 ± 0.021, H2O2 0.087 ± 0.006; for neuronal survival under oxidative stress: added 24 hours prior to the stress exposure, 10^−8 M to 10^−5 M
Method: To induce an oxidative stress, the cells were placed in a growth medium containing 5% FBS, then a freshly prepared H2O2 solution was added to a final concentration of 1.5 mM and incubated for 30 min at 37° C. and 5% CO2. Thereafter, the medium was replaced with a new one and the cells were cultured for 4 h under the same conditions.
The determination of cell viability was carried out by MTT test. […] At the end of an experiment the growth medium was replaced with an MTT solution (0.5 mg/ml) and incubated for 30 min at 37° C. and 5% CO2. The MTT solution was then removed from the wells and DMSO was added to dissolve the formazan precipitate. Then the optical density was measured using a Multiscan (Thermo) spectrophotometer at a wavelength of 600 nm.

| Structure (SMILES) | protective effect against MPTP (PC12 cell line) | Optical density (MTT) (HT-22 cells; 10^−5M) | Optical density (MTT) (HT-22 cells; 10^−6M) | Optical density (MTT) (HT-22 cells; 10^−7M) | Optical density (MTT) (HT-22 cells; 10^−8M) | neuronal survival under oxidative stress (HT-22 cells) |
| --- | --- | --- | --- | --- | --- | --- |
| NCCCC[C@H](NC(=O)[C@H](CCC(=O)O)NC(=O)CCC(=O)O)C(=O)NCCCCCC(=O)NCCCNC(=O)CCCCCNC(=O)[C@H](CCCCN)NC(=O)[C@H](CCC(=O)O)NC(=O)CCC(=O)O [GK-2a, bis-(N-monosuccinyl-glutamyl-lysyl-6-aminohexanoic acid) trimethylenediamide] | protective effect | 0.108 ± 0.019^ | 0.429 ± 0.02 | 0.449 ± 0.024 | 0.106 ± 0.028 | improved the neuronal survival |
| NCCCC[C@H](NC(=O)[C@H](CCC(=O)O)NC(=O)CCC(=O)O)C(=O)NCCCCCNC(=O)[C@H](CCCCN)NC(=O)[C@H](CCC(=O)O)NC(=O)CCC(=O)O [GK-2b, bis-(N-monosuccinyl-glutamyl-lysine)pentamethylenediamide] | – | – | – | – | – | improved the neuronal survival |
| NCCCC[C@H](NC(=O)[C@H](CCC(=O)O)NC(=O)CCC(=O)O)C(=O)NCCNC(=O)[C@H](CCCCN)NC(=O)[C@H](CCC(=O)O)NC(=O)CCC(=O)O [GK-2e, bis-(N-monosuccinyl-glutamyl-lysine)ethylenediamide] (I: Suc-Glu-Lys / II: Suc-Glu-Lys; linker I:C-II:C via Ethylenediamine) | – | – | – | – | – | improved the neuronal survival |
| NCCCCCC(=O)NCC(=O)N[C@@H](CCCCN)C(=O)NCCCCCCNC(=O)[C@H](CCCCN)NC(=O)CNC(=O)CCCCCN [GK-6, bis-(N-(6-aminocaproyl)glycyl-lysine) hexamethylenediamide] | – | – | – | – | – | improved the neuronal survival |
